# Measured values published in patent US20060127384A1, “Coenzyme Q10 as antiapoptotic agent” (priority 2004, published 2006).
# Legend:
# [1] = system: mitochondrial Permeability Transition Pore (mPTP); details: in response to any apoptotic stimulus; cited from earlier work
# cytochrome C = experiment: Dosage of cytoplasmic cytochrome C in adipocytes by Western blotting; format: cell-based, human; details: liposucted adipocytes, Western blot (FIG. 1)
# Protocol: (§1) Quantification of Apoptotic Factors (cytocrome c, caspase 3 and 9)
# (§2) Adipocytes have been collected both manually using a “Luer-lock” 10 cc. syringe following Coleman's technique, and by a liposuctor with a negative pressure adjusted to maintain −680 mmHg. After the collection, half of the sample was treated with coenzyme Q10 dissolved in Lutrol (or another amphipathic molecule) at 10 μM concentration, as reported in previous works (1, 3). The other half of collected sample was treated with Lutrol (or another amphipathic molecule) alone. Both samples were then -centrifuged. The interphase and cell pellet were collected, following Coleman's technique (6) and maintained in liquid Nitrogen.
# (§3) Preparation of protein cell lysates (6) is a modification of the -method described by Rioux (7).
# Liposucted cell suspensions were centrifuged at 800 g for 10 minutes. […] After removing the fat layer and the pellet of cellular debris, the protein content was quantified with Bradford reagent by spectrophotometry. Protein lysates (30 μg/lane) were separated by SDS-PAGE (10 and 15%) and analysed by Western blot analysis with specific antibodies.
# (§4) Quantification of apoptotic factors was performed by densitometry.
# skin grafts = experiment: Apoptotic cells in skin grafts (Hoechst staining / in situ TUNEL); format: cell-based, human
# Protocol: FIG. 4. Appearance of skin grafts untreated or treated with coenzyme Q10 and stained with in situ TUNEL.
# FIG. 5. Number of apoptotic cells in skin grafts untreated or treated with coenzyme Q10 and stained with in situ TUNEL. Values are expressed as percentage of total cells (living+dead cells).
# Isolated adipocytes in suspension were fixed with 4% paraformaldehyde for 20 min at RT (room temperature), washed 3 times with PBS and permeabilized for 5 min with 0.25% Triton X-100 in PBS solution. Washes with PBS were repeated 3 times for 5 min each time and the cells were stained with Hoechst 33258 (Sigma) nuclear dye for 30 min at 37° C. followed by washing in PBS 3 times for 5 min.
# (§5) The stained cells (10^4) were affixed to polylysine-treated glass slides by gentle cyto-centrifugation or by spreading the cellular film directly on the surface, of the glass slide and mounted. Nuclear staining was examined under Nikon fluorescence microscope (20× and 40× magnification) equipped with camera. The results are expressed as the percentage of apoptotic cells (number of apoptotic cells/100 counted cells) in 10 random fields, performed by 3 independent observers.
# caspase 9 = experiment: Quantification of caspase 9 in adipocytes by Western blotting and densitometry; format: cell-based, human
# Protocol: as §1, §2, §3
# (§6) Liposucted cell suspensions were centrifuged at 800 g for 10 minutes. 1 ml of lysis buffer (0.75 M NaCl, 10 mM HEPES, 1 mM EDTA, 1% Triton-X-100) containing a protease inhibitor mixture (final concentrations 1 μg/ml leupeptin, 10 μg/ml benzamidine, 1 μg/ml chymostatin, 1 μg/ml pepstatin A and 100 μg/ml PMSF) was added and the cell pellet was sonicated two times successively (20 sec, 100 W) to obtain whole cellular lysate. The lysate was further cleared by centrifugation at 10.000 g for 30 min in mini centrifuge. After removing the fat layer and the pellet of cellular debris, the protein content was quantified with Bradford reagent by spectrophotometry. Protein lysates (30 μg/lane) were separated by SDS-PAGE (10 and 15%) and analysed by Western blot analysis with specific antibodies.
# as §4
# caspase 3 = experiment: Quantification of caspase 3 in adipocytes by Western blotting and densitometry; format: cell-based, human
# Protocol: as §1, §2, §3, §6, §4
# cultured keratocytes = details: excimer laser irradiation; cited from earlier work
# adipocytes = experiment: Apoptotic events in adipocytes from explanted tissues; format: cell-based, human; details: adipocytes maintained in the presence of coenzyme Q10
# Protocol: Isolation of Adipocytes from Adipose Tissue
# Modification of protocol described by Flower et al., Cytokine 21 (2003) 32-37.
# For isolation, adipocyte tissue was quickly thawed, dissected with scissors into fine fragments in-digest solution consisting of Hank's buffer, supplemented with 2 mg/ml of collagenase (Type II, Sigma) and 1.5% BSA, and incubated at 37° C. for 1 hour in shaker-heater bath. The ratio of digest solution to adipose tissue was 4:1. The tissue digest was filtered through 200 μm Nylon mesh fabric in order to remove non digested tissue fragments. The adipocyte-containing layer and free oil were separated from the resulting stromovascular cell suspension by repeated centrifugation at 250×g for 5 minutes at 4° C. All the cells retrieved were morphologically typical mature adipocytes.
# Detection of Apoptotic Adipocytes by Hoechst Staining […]
# as §5
# [2] = adipocytes collected manually (Luer-lock syringe) and by liposuctor, 10 μM in Lutrol, vs untreated samples
# [3] = adipocytes collected with Coleman's technique, added prior to centrifugation and purification
# [4] = cells from explanted tissues after ex vivo treatments, in the presence of coenzyme Q10
compound,measurement,setting,value
"COC1=C(OC)C(=O)C(C/C=C(\C)CC/C=C(\C)CC/C=C(\C)CC/C=C(\C)CC/C=C(\C)CC/C=C(\C)CC/C=C(\C)CC/C=C(\C)CC/C=C(\C)CCC=C(C)C)=C(C)C1=O [coenzyme Q10, 2.3-dimethoxy-5-methyl-6-multiprenyl-1.4-benzoquinone]",disruption of mitochondrial transmembrane electrochemical gradient and opening of mPTP,[1],directly inhibits
same,translocation of cytochrome C to cytosol,cytochrome C,significantly inhibited
same,number of apoptotic events,skin grafts; cutaneous cells maintained in the presence of coenzyme Q10,significantly reduced
same,percentage of apoptotic cells,"skin grafts; skin graft, glass slides of treated vs non treated cells (FIG. 4)",dramatically lower
same,cell morphology,"skin grafts; skin graft, treated cells, non treated cells showed nuclear condensation and fragmentation",normal morphology of a living cell
same,number of apoptotic cells,skin grafts; skin grafts immersed in coenzyme Q10-saline solution (FIG. 5),drastically decreased
same,reduction of caspase 9 activity compared to controls (FIG. 2),caspase 9; [2],~50%
same,caspase 9 activity evaluated by Western blotting,caspase 9; [3],dramatically reduced
same,reduction of caspase 9 level,caspase 9; [4],more than 50%
same,reduction of caspase 3 activity compared to controls (FIG. 2),caspase 3; [2],~50%
same,caspase 3 activity evaluated by Western blotting,caspase 3; [3],dramatically reduced
same,reduction of caspase 3 level,caspase 3; [4],more than 50%
same,apoptosis,cultured keratocytes,able to inhibit apoptosis
same,number of apoptotic events,adipocytes,significantly reduced
